Laboratory results reported in patent US6630462B2, “Delta agonist analgesics” (Adolor Corporation, priority 2000, dated 2003).
Where two headings read alike, the source gives them in different places.

How the values were obtained:
[1] = biological target: cloned human δ opioid receptor (Homo sapiens, UniProt P41143); experiment: Opioid receptor binding assay, [3H]diprenorphine, CHO cell membranes; settings: for Ki: cloned human δ receptor in CHO membranes, read-out: Ki, inhibition of [3H]diprenorphine binding, δ
Protocol: (§1) Chinese hamster ovary (CHO) cells are stably transfected with the cloned human μ, κ, or δ opioid receptors. Cells are harvested by scraping them from the culture flask, centrifuging them at 1000×g for 10 min, resuspending them in buffer A and centrifuging again to remove growth medium. The cells are resuspended again in buffer A and homogenized for 30 seconds using a Polytron homogenizer (Brinkmann) at setting 8. The homogenate is centrifuged at 48,000×g for 10 min at 4° C. The pellets are resuspended at 1 mg of protein per mL of buffer A and aliquots stored at −80° C. until use. Buffer A is 50 mM Tris HCl, pH 7.8, containing 1.0 mM EGTA, 5 mM MgC12, 10 mg/mL leupeptin, 10 mg/mL pepstatin A, 200 mg/mL bacitracin, and 0.5 mg/mL aprotinin.
The filters are rinsed 4×1 mL with cold 50 mM Tris HCl, pH 7.8 and radioactivity remaining on the filters is determined by scintillation spectroscopy. Ki values are determined by Cheng-Prusoff corrections of IC50 values derived from nonlinear regression fits of 12 point titration curves using the program Prism© (GraphPad Software, San Diego, Calif.).

[2] = biological target: cloned human κ opioid receptor (Homo sapiens, UniProt P41145); experiment: as above; settings: for inhibition at 10 µM: [3H]diprenorphine binding
Protocol: as §1
(§2) Receptor binding assays contain 0.4-1.0 nM [3H]diprenorphine (˜40,000 dpm), test compound as appropriate, and membrane preparation in a total volume of 0.5 mL buffer A. After incubation at room temperature for one hour, the samples are filtered through Whatman GF/B filters that have been presoaked in a solution of 0.5% (w/v) polyethylenimine and 0.1% (w/v) bovine serum albumin in water. The filters are rinsed 4×1 mL with cold 50 mM Tris HCl, pH 7.8 and radioactivity remaining on the filters is determined by scintillation spectroscopy. Ki values are determined by Cheng-Prusoff corrections of IC50 values derived from nonlinear regression fits of 12 point titration curves using the program Prism© (GraphPad Software, San Diego, Calif.).

[3] = biological target: cloned human μ opioid receptor (Homo sapiens, UniProt P35372); experiment: as above; settings: for inhibition at 10 µM: read-out: % Inhibition @ 10 μM, μ
Protocol: as §1, §2

seizures in mice = experiment: Drug-induced seizures; format: in vivo; settings: for induction of seizures: s.c., doses up to 30 mg/kg, observed 30 min
Protocol: Mice are injected s.c. with either vehicle (1:1:8, DMSO: Cremophor: Saline), clozapine (3-30 mg/kg), or DMCLZ (3-30 mg/kg). Immediately after injection, the mice are placed in individual plastic cages (30×16×12 cm) lined with bedding. The mice are observed for gross behavioral signs for 30 min, and the presence or absence of seizures is noted.
To determine the role of δ opioid receptors in mediating clozapine-induced seizures, mice are pretreated with either saline or the selective δ antagonist naltrindole (NTI) (1 mg/kg, s.c.) 20 min prior to treatment with vehicle or 30 mg/kg of clozapine.

human δ opioid receptor = human δ opioid receptor (Homo sapiens, UniProt P41143); experiment: Opioid receptor-mediated stimulation of [35S]GTPγS binding; format: biochemical
Protocol: as §1, with “Buffer A is 50 mM Tris HCl, pH 7.8, containing 1.0 mM EGTA, 5 mM MgC12, 10 mg/mL leupeptin, 10 mg/mL pepstatin A, 200 mg/mL bacitracin, and 0.5 mg/mL aprotinin.” left out
Assays contain 80-100 pM [35S]GTPγS, […], 75 mM NaCl, 15 mM MgCl2, 1.0 mM EGTA, 2.1 mM dithiothreitol, 10 mg/mL leupeptin, 10 mg/mL pepstatin A, 200 mg/mL bacitracin, 0.5 mg/mL aprotinin, […] of membrane protein and agonist as appropriate in a final total volume of […] of 50 mM Tris HCl, pH 7.8 in 96 well Basic Flashplates® (NEN). After incubation for one hour at room temperature, the samples are centrifuged at 800×g at 4° C. for 5 min and the radioactivity (cpm) bound to the membranes is determined by scintillation spectrometry.
To determine the IC50 value, which is the concentration to give half-maximal inhibition of agonist-stimulated [35S]GTPγS binding, the cpm of [35S]GTPγS bound in the presence of a fixed concentration of agonist and various concentrations of antagonist is measured. […]

[4] = test system: formalin-induced flinching, late phase; experiment: Formalin-induced flinching; format: in vivo, Sprague-Dawley rats; settings: rat, 300 μg i.paw, late phase 20-35 min after formalin
Protocol: Male Sprague-Dawley rats weighing 80-120 g are injected s.c. with […] of a 5% formalin solution into the dorsal surface of the right hind paw (i.paw). The flinching behavior is quantified by counting the number of responses that occur during the tonic (late) phase of pain, lasting from 20-35 min after formalin injection. The test compounds are injected i.paw 10 min prior to the formalin injection. The mean percent antagonism (%A) of formalin-induced flinching for drug treated, formalin injected rats is calculated according to the following formula: %A=(Mean formalin response−Mean saline response)−Individual response×100/Mean formalin response−Mean saline response The mean formalin response is the mean number of flinches in rats treated with vehicle prior to the formalin injection. The mean saline response is the mean number of flinches in rats treated with […] saline instead of formalin.

[5] = test system: acetic acid-induced writhing; experiment: Acetic acid-induced writhing; format: in vivo, ICR mice; settings: sc; mouse, s.c., 15 min before acetic acid
Protocol: Male ICR mice weighing 20-25 g are injected s.c. with either vehicle or test compound 15 min before they are injected intraperitoneally with 0.6% acetic acid. At 5 min after treatment with acetic acid, the number of writhes is counted for 10 min. Dose response curves are expressed as the percent inhibition of acetic acid induced writhing, when compared to the mean number of writhes observed in vehicle-treated mice.
The mean percent inhibition (%I) of acetic acid-induced writhing for drug-treated rats is calculated according to the following formula: [formula]
The mean individual response is the mean number of writhes in rats treated with test compound. The mean vehicle response is the mean number of writhes in rats treated with vehicle.

[6] = human patients; cited from earlier work
[7] = 10 μM, [3H]diprenorphine binding

cloned human δ opioid receptor, sequence (P41143 whole entry): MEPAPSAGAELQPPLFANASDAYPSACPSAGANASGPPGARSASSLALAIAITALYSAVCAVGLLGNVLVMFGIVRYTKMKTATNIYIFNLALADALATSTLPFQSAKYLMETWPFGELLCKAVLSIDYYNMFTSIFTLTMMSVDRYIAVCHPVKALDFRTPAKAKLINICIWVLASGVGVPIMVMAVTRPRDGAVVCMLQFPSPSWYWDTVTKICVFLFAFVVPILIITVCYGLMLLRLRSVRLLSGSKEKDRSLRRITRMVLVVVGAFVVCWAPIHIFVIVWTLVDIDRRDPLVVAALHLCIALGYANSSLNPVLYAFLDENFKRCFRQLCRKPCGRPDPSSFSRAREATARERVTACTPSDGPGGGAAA
cloned human μ opioid receptor, sequence (P35372 whole entry): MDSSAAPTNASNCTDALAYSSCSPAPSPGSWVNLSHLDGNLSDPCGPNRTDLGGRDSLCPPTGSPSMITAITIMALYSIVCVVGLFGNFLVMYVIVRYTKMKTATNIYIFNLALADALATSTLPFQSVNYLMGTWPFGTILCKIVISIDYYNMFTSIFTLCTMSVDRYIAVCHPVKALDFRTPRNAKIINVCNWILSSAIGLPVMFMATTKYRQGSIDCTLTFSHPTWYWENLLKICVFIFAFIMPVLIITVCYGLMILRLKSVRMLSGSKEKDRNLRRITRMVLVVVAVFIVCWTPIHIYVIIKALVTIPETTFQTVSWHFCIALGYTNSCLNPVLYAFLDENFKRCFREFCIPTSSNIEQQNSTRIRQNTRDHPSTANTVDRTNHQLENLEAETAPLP
cloned human κ opioid receptor, sequence (P41145 whole entry): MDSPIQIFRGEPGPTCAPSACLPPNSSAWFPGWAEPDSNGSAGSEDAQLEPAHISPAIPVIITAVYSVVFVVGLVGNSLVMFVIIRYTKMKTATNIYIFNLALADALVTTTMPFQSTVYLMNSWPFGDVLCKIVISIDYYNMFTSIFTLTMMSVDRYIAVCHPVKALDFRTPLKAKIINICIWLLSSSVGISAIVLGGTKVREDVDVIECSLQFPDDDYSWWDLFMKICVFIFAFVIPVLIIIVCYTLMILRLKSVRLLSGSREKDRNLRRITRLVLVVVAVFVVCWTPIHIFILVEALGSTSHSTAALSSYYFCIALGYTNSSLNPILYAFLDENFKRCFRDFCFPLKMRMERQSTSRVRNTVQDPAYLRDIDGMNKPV
human δ opioid receptor, sequence (P41143 whole entry): as the sequence (P41143 whole entry) above

Question: What does the source list for `CN1CCN(C2=Nc3cc(Cl)ccc3Nc3ccccc32)CC1` [Clozapine, 8-chloro-11-(4-methyl-1-piperazinyl)-5H-dibenzo[b,e][1,4]-diazepine]?
Answer: Ki [1]: 928 nM; inhibition at 10 µM [2]: 11%; inhibition at 10 µM [3, 7]: 17%; blockade of clozapine-induced seizures by the selective δ antagonist naltrindole (seizures in mice; naltrindole 1 mg/kg s.c. 20 min before 30 mg/kg clozapine): not blocked

Question: What does the source list for `CN1CCN(C2=Nc3ccccc3Oc3ccc(Cl)cc32)CC1` [Loxapine]?
Answer: inhibition at 10 µM [1, 7]: 26%; inhibition at 10 µM [2]: 27%; inhibition at 10 µM [3, 7]: 0%

Question: Which results are given for `C=CCN1C[C@H](C)N([C@H](c2ccc(C(=O)N(CC)CC)cc2)c2cccc(O)c2)C[C@H]1C` [BW373U86]?
Answer: Ki ([2]; cloned human κ receptor in CHO membranes, read-out: Ki, inhibition of [3H]diprenorphine binding, κ): 149 nM; Ki ([3]; cloned human μ receptor in CHO membranes, read-out: Ki, inhibition of [3H]diprenorphine binding, μ): 96 nM

Question: Which inhibition at 1 µM ([2]; read-out: % Inhibition @ 1.0 μM, κ) does the source give for `C=CCN1C[C@H](C)N([C@H](c2ccc(C(=O)N(CC)CC)cc2)c2cccc(OC)c2)C[C@H]1C` [SNC-80] here?
Answer: Its inhibition at 1 µM is 2%.

Question: And the inhibition at 10 µM [3]?
Answer: The inhibition at 10 µM was 5.5%.

Question: Which inhibition at 10 µM [2] does the source give for `Clc1ccc2c(c1)C(N1CCNCC1)=Nc1ccccc1O2` [Amoxapine] here?
Answer: Its inhibition at 10 µM is 25%.

Question: And the inhibition at 10 µM [3, 7]?
Answer: The inhibition at 10 µM was 18%.

Question: Which Ki [1] does the source give for `Clc1ccc2c(c1)N=C(N1CCNCC1)c1ccccc1N2` [N-desmethylclozapine] here?
Answer: Its Ki is 24 nM.

Question: What about the inhibition at 10 µM [2] of the same compound?
Answer: Its inhibition at 10 µM is 64%.

Question: What about the inhibition at 10 µM [3, 7] of the same compound?
Answer: Its inhibition at 10 µM is 17%.

Question: What about the EC50 (human δ opioid receptor) of the same compound?
Answer: Its EC50 is 290 nM.

Question: And the “agonist character at the human δ opioid receptor” value (human δ opioid receptor; FIG. 3)?
Answer: Its value is “full agonist”.

Question: What about the “percent antagonism (% A) of formalin-induced flinching” value [4] of the same compound?
Answer: Its value is 56 % A.

Question: What about the ED50 [5] of the same compound?
Answer: Its ED50 is 2.2 mg/kg.

Question: What about the induction of seizures (seizures in mice) of the same compound?
Answer: The induction of seizures was “does not induce seizures”.

Question: And the induction of seizures (seizures in mice; listed as DMCLZ)?
Answer: The induction of seizures was “does not produce seizures”.

Question: What about the plasma level [6] of the same compound?
Answer: Its plasma level is roughly 620 nM.
